In ChEMBL document CHEMBL1156251, “Structure--activity relationships of polymyxin antibiotics” (J Med Chem, 2010) one finds MIC data, which are given here for eight compounds.

≈ marks a conversion by molar mass, not a printed value.

Assay [1] relates to Escherichia coli. As to the kind of experiment: Antimicrobial activity against Escherichia coli. The assay is classed as functional.
Assay [2] relates to Klebsiella pneumoniae. As to the kind of experiment: Antimicrobial activity against Klebsiella pneumoniae. The assay is classed as functional.

`CCC(C)CCCCC(=O)N[C@@H](CC/N=C/c1ccc(N(C)C)cc1)C(=O)N[C@H](C(=O)N[C@@H](CCN)C(=O)N[C@H]1CCNC(=O)[C@H]([C@@H](C)O)NC(=O)[C@H](CC/N=C/c2ccc(N(C)C)cc2)NC(=O)[C@H](CC/N=C/c2ccc(N(C)C)cc2)NC(=O)[C@H](CC(C)C)NC(=O)[C@@H](CC(C)C)NC(=O)[C@H](CC/N=C/c2ccc(N(C)C)cc2)NC1=O)[C@@H](C)O` (stereo partly specified): the MIC (usually the least concentration at which growth counts as inhibited) in assay [1] came to 12 µg/mL (≈ 7.08 µM); in assay [2] it was 3.1 µg/mL (≈ 1.83 µM).
Consider `CCC(C)CCCCC(=O)N[C@@H](CCNCc1ccc(O)cc1)C(=O)N[C@H](C(=O)N[C@@H](CCN)C(=O)N[C@H]1CCNC(=O)[C@H]([C@@H](C)O)NC(=O)[C@H](CCNCc2ccc(O)cc2)NC(=O)[C@H](CCNCc2ccc(O)cc2)NC(=O)[C@H](CC(C)C)NC(=O)[C@@H](Cc2ccccc2)NC(=O)[C@H](CCNCc2ccc(O)cc2)NC1=O)[C@@H](C)O` (stereo partly specified), for which the MIC in assay [1] was 6.2 µg/mL (≈ 3.81 µM); in assay [2] it was 1.6 µg/mL (≈ 0.983 µM).
Taken in the same sequence, the figures for `CCC(C)CCCCC(=O)N[C@@H](CC/N=C/c1ccc(N(C)C)cc1)C(=O)N[C@@H](C(=O)N[C@@H](CC/N=C/c1ccc(N(C)C)cc1)C(=O)N[C@H]1CCNC(=O)[C@@H]([C@@H](C)O)NC(=O)[C@H](CC/N=C/c2ccc(N(C)C)cc2)NC(=O)[C@H](CC/N=C/c2ccc(N(C)C)cc2)NC(=O)[C@H](CC(C)C)NC(=O)[C@@H](Cc2ccccc2)NC(=O)[C@H](CC/N=C\c2ccc(N(C)C)cc2)NC1=O)[C@@H](C)O` (stereo partly specified) were 12 µg/mL (≈ 6.45 µM) and 3.1 µg/mL (≈ 1.67 µM).
Regarding `CCC(C)CCCCC(=O)N[C@@H](CCNCc1ccc(O)c(OC)c1)C(=O)N[C@@H](C(=O)N[C@@H](CCN)C(=O)N[C@H]1CCNC(=O)[C@@H]([C@@H](C)O)NC(=O)[C@H](CCNCc2ccc(O)c(O)c2)NC(=O)[C@H](CCNCc2ccc(O)c(OC)c2)NC(=O)[C@H](CC(C)C)NC(=O)[C@@H](Cc2ccccc2)NC(=O)[C@H](CCNCc2ccc(O)c(OC)c2)NC1=O)[C@@H](C)O` (stereo partly specified), the MIC is 724 µg/mL (≈ 418 µM) in assay [1] and 12 µg/mL (≈ 6.92 µM) in assay [2].
The corresponding values for `CCC(C)CCCCC(=O)N[C@@H](CC/N=C/c1ccc(O)c(OC)c1)C(=O)N[C@@H](C(=O)N[C@@H](CCN)C(=O)N[C@H]1CCNC(=O)[C@@H]([C@@H](C)O)NC(=O)[C@H](CC/N=C/c2ccc(O)c(OC)c2)NC(=O)[C@H](CC/N=C/c2ccc(O)c(OC)c2)NC(=O)[C@H](CC(C)C)NC(=O)[C@@H](CC(C)C)NC(=O)[C@H](CC/N=C/c2ccc(O)c(OC)c2)NC1=O)[C@@H](C)O` (stereo partly specified) are 5.5 µg/mL (≈ 3.22 µM) and 2.8 µg/mL (≈ 1.64 µM).
As to `CCC(C)CCCCC(=O)N[C@@H](CCNCc1ccc(C(C)C)cc1)C(=O)N[C@@H](C(=O)N[C@@H](CCN)C(=O)N[C@H]1CCNC(=O)[C@@H]([C@@H](C)O)NC(=O)[C@H](CCNCc2ccc(C(C)C)cc2)NC(=O)[C@H](CCNCc2ccc(C(C)C)cc2)NC(=O)[C@H](CC(C)C)NC(=O)[C@@H](Cc2ccccc2)NC(=O)[C@H](CCNCc2ccc(C(C)C)cc2)NC1=O)[C@@H](C)O` (stereo partly specified), the values for the MIC in assay [1] and in assay [2] were 12 µg/mL (≈ 6.93 µM) and 26 µg/mL (≈ 15 µM), respectively.
Taken in the same sequence, the figures for `CCC(C)CCCCC(=O)N[C@@H](CCNCc1ccccc1)C(=O)N[C@H](C(=O)N[C@@H](CCN)C(=O)N[C@H]1CCNC(=O)[C@H]([C@@H](C)O)NC(=O)[C@H](CCNCc2ccccc2)NC(=O)[C@H](CCNCc2ccccc2)NC(=O)[C@H](CC(C)C)NC(=O)[C@@H](CC(C)C)NC(=O)[C@H](CCNCc2ccccc2)NC1=O)[C@@H](C)O` (stereo partly specified) were 5 µg/mL (≈ 3.27 µM) and 1.3 µg/mL (≈ 0.85 µM).
As for `CCC(C)CCCCC(=O)N[C@@H](CCNCc1ccc(O)cc1)C(=O)N[C@H](C(=O)N[C@@H](CCN)C(=O)N[C@H]1CCNC(=O)[C@H]([C@@H](C)O)NC(=O)[C@H](CCNCc2ccc(O)cc2)NC(=O)[C@H](CCNCc2cccc(O)c2)NC(=O)[C@H](CC(C)C)NC(=O)[C@@H](CC(C)C)NC(=O)[C@H](CCNCc2ccc(O)cc2)NC1=O)[C@@H](C)O` (stereo partly specified), the MIC stood at 5.5 µg/mL (≈ 3.45 µM) in assay [1] and 1.4 µg/mL (≈ 0.878 µM) in assay [2].
